Nc1nc(=O)[nH]cc1F
solubility (mole fraction)
Details	in 1,4-dioxane	in 2-butanone	in DMF	in DMSO	in acetone	in acetonitrile	in ethyl acetate	in isopropanol	in n-butanol	in n-propanol
283.15 K	1.13e-05	4.37e-05	0.00113	0.00559	6.9e-05	7e-06	3.5e-06	0.00016	0.000282	0.000222
288.15 K	1.51e-05	5.91e-05	0.00127	0.00611	8.62e-05	9.6e-06	4.5e-06	0.000204	0.000332	0.000272
293.15 K	1.92e-05	7.74e-05	0.00146	0.00675	0.000107	1.31e-05	6.2e-06	0.000253	0.000399	0.000334
298.15 K	2.37e-05	9.76e-05	0.00169	0.00754	0.000131	1.77e-05	8.6e-06	0.000314	0.000477	0.000406
303.15 K	2.82e-05	0.000121	0.00193	0.00838	0.000158	2.23e-05	1.14e-05	0.000382	0.000567	0.000489
308.15 K	3.43e-05	0.000149	0.0022	0.00932	0.000192	2.84e-05	1.46e-05	0.000461	0.000674	0.000577
313.15 K	4.17e-05	0.000184	0.00252	0.0103	0.000224	3.58e-05	1.93e-05	0.000548	0.000787	0.000677
318.15 K	5.08e-05	0.000223	0.00287	0.0115	0.000273	4.5e-05	2.45e-05	0.000643	0.000916	0.000792
323.15 K	6.07e-05	0.000271	0.00329	0.0129	0.000321	5.67e-05	3.11e-05	0.000757	0.00107	0.000923
